According to paper PMC11566621 (Stem Cell Research & Therapy, 2024):

Target: KLF4 (Kruppel-Like Factor 4) (Homo sapiens, UniProt O43474)
Experiment: SPR
Assay type: binding

KLF4 (Kruppel-Like Factor 4), sequence (O43474 whole entry): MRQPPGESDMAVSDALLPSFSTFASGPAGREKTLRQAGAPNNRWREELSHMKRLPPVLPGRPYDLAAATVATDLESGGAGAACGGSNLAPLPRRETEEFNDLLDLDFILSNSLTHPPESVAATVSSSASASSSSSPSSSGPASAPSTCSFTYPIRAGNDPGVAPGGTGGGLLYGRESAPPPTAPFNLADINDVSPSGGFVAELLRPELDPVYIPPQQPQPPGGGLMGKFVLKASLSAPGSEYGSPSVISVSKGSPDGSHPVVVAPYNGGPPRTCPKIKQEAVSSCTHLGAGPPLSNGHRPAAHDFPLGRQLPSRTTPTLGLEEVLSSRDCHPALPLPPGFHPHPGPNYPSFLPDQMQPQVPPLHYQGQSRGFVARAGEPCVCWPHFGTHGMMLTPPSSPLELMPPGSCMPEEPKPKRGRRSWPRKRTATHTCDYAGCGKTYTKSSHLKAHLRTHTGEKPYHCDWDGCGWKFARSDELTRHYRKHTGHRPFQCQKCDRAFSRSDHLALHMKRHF

- Kd: 48.9 µM
Compound: C[C@@H]1O[C@@H](O[C@H]2C(=O)c3c(O)cc(O)cc3O[C@@H]2c2ccc(O)c(O)c2)[C@H](O)[C@H](O)[C@H]1O [Astilbin]
